# From US20250170126A1 (MITSUBISHI TANABE PHARMA CORPORATION, priority 2022, published 2025)
# Target: Human B0AT1 (Homo sapiens (Human), UniProt Q695T7)
# Assay: hB0AT1 inhibitory test (phenylalanine uptake)
# Assay type: cell-based
# Settings: Human B0AT1 stable expression CHO cells; [3H]-L-phenylalanine uptake, phenylalanine 0.25 mM
# Description: A test compound dissolved in dimethyl sulfoxide (DMSO) was added to a 96 well plate for solid phase radioactivity measurement containing a scintillator at the bottom of the well (final concentration of DMSO 0.5%). DMSO alone as a control and DMSO containing N-(4-bromophenyl)-3,5-dichloro-2-hydroxybenzamide (final concentration […]) for the is measurement of B0AT1 non-specific uptake were similarly added at 0.5 μL per well. Human B0AT1 stable expression CHO cells suspended in a buffer (buffer containing 96 mM sodium chloride, 2 mM potassium chloride, 1.8 mM calcium chloride, 1 mM magnesium chloride, 0.01% bovine serum albumin, and 10 mM 2-[4-(2-hydroxyethyl)-1-piperazinyl]ethanesulfonic acid) were added by 90 μL to 75000 cells/well. After standing at ordinary temperature for 30 min or longer, the cells were subjected to a phenylalanine uptake experiment. A buffer containing L-phenylalanine and [3,4,5-3H]-L-phenylalanine was added by 10 μL per well (final concentration of phenylalanine 0.25 mM), and the radioactivity of the plate bottom surface at ordinary temperature was measured with a scintillation counter over time, and the radioactivity value after 100 to 200 min was analyzed. A value obtained by subtracting the B0AT1 non-specific uptake from the control uptake was taken as 100%, and the concentration necessary for each test compound to achieve 50% inhibition (IC50 value) was determined by nonlinear regression using a logistic model.
# Chain of Human B0AT1 (Q695T7 whole entry): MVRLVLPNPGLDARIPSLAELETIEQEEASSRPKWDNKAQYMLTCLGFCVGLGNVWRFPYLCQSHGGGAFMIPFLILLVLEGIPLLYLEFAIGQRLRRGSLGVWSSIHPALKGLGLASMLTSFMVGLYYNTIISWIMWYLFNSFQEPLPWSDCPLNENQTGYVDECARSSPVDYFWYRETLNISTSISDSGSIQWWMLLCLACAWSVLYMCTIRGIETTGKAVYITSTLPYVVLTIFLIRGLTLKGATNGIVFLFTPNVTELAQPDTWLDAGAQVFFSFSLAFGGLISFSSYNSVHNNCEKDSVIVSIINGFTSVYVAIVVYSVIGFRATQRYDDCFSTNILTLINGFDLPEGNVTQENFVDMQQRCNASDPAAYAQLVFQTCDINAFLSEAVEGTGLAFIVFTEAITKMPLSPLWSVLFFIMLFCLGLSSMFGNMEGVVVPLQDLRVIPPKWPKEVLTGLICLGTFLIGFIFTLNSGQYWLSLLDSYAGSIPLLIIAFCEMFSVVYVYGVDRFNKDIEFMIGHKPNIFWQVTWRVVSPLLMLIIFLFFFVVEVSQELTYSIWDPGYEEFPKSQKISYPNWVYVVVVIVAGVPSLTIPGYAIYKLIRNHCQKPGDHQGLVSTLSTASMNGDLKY
row,SMILES,IC50
1,"COCCN(C)C(=O)CN(CCOC)C(=O)CNC(=O)/C=C/c1ccc(C(F)(F)F)cc1 [I-147, (E)-N-[2-[2-methoxyethyl-[2-[2-methoxyethyl(methyl)amino]-2-oxoethyl]amino]-2-oxoethyl]-3-[4-(trifluoromethyl)phenyl]prop-2-enamide]",298 nM
2,CNC(=O)c1cc2n(n1)CCN(C(=O)CNC(=O)/C=C/c1ccc(C(F)(F)F)cc1)C2 [I-203],45 nM
3,O=C(/C=C/c1ccc(C(F)(F)F)cc1)NCC(=O)N1Cc2ncsc2C1 [I-62],77 nM
4,O=C(/C=C/c1ccc(C(F)(F)F)cc1)NCC(=O)N1CCn2nc(C(=O)O)c(C3CCCCC3)c2C1 [I-266],133 nM
5,O=C(/C=C/c1ccc(C(F)(F)F)cc1)NCC(=O)N1CCN2C(=O)OC[C@@H]2C1 [I-33],319 nM
6,O=C(/C=C/c1ccc(C(F)(F)F)cc1)NCC(=O)N1CCn2nc(C(=O)O)c(Br)c2C1 [I-269],145 nM
7,COCCN(CC1CCOCC1)C(=O)CNC(=O)/C=C/c1ccc(C(F)(F)F)cc1 [I-49],775 nM
8,CC(=O)N1CCN(C(=O)CNC(=O)/C=C/c2ccc(C(F)(F)F)cc2)CC1 [I-28],978 nM
9,"COCCN(CC(=O)N(C)CCO)C(=O)CNC(=O)/C=C/c1ccc(C(F)(F)F)cc1 [I-148, (E)-N-[2-[[2-[2-hydroxyethyl(methyl)amino]-2-oxoethyl]-(2-methoxyethyl)amino]-2-oxoethyl]-3-[4-(trifluoromethyl)phenyl]prop-2-enamide]",259 nM
10,O=C(/C=C/c1ccc(C(F)(F)F)cc1)NCC(=O)N1CCc2nc[nH]c2C1 [I-75],99 nM
11,Cn1cc2c(n1)CCN(C(=O)CNC(=O)/C=C/c1ccc(C(F)(F)F)cc1)C2 [I-82],64 nM
12,CN1CCCN(C(=O)CNC(=O)/C=C/c2ccc(C(F)(F)F)cc2)CC1 [I-3],40 nM
13,COCCN(CCOC)C(=O)CNC(=O)/C=C/c1ccc(C(F)(F)F)cc1 [I-4],285 nM
14,"Cc1nnc([C@H]2CN(C(=O)CNC(=O)/C=C/c3ccc(C(F)(F)F)cc3)CCN2C)o1 [I-131, (E)-N-[2-[(3R)-4-methyl-3-(5-methyl-1,3,4-oxadiazol-2-yl)piperazin-1-yl]-2-oxoethyl]-3-[4-(trifluoromethyl)phenyl]prop-2-enamide]",1930 nM
15,O=C(/C=C/c1ccc(C(F)(F)F)cc1)NCC(=O)N1CCn2nncc2C1 [I-80],42 nM
16,CN(C)C(=O)c1nc2n(n1)CCN(C(=O)CNC(=O)/C=C/c1ccc(C(F)(F)F)cc1)C2 [I-206],77 nM
17,C[C@@H]1c2ncnn2CCN1C(=O)CNC(=O)/C=C/c1ccc(C(F)(F)F)cc1 [I-204],819 nM
18,CN1CCN(C(=O)CNC(=O)/C=C/c2ccc(C3CC3)cc2)CC1 [I-110],98 nM
19,N#Cc1cnn2c1CN(C(=O)CNC(=O)/C=C/c1ccc(C(F)(F)F)cc1)CC2 [I-190],21 nM
20,N#Cc1cccc2c1CCN(C(=O)CNC(=O)/C=C/c1ccc(C(F)(F)F)cc1)C2 [I-192],30 nM
21,O=C(/C=C/c1ccc(C(F)(F)F)cc1)NCC(=O)N1CCc2[nH]nnc2C1 [I-98],78 nM
22,COCC(C)N(Cc1nnc(C)o1)C(=O)CNC(=O)/C=C/c1ccc(C(F)(F)F)cc1 (stereo not shown) [I-210],165 nM
23,Cc1nnc([C@H]2CN(C)CCN2C(=O)CNC(=O)/C=C/c2ccc(C(F)(F)F)cc2)o1 [I-121],81 nM

row,SMILES,IC50
1,O=C(/C=C/c1ccc(C(F)(F)F)cc1)NCC(=O)N1CNC(=O)C1 [I-31],106 nM
2,Cn1cc2c(n1)CN(C(=O)CNC(=O)/C=C/c1ccc(C(F)(F)F)cc1)C2 [I-70],136 nM
3,CCOc1ccc(/C=C/C(=O)NCC(=O)N2CCN(C)CC2)cc1 [I-117],199 nM
4,COCCN(Cc1cc(OC)ccn1)C(=O)CNC(=O)/C=C/c1ccc(C(F)(F)F)cc1 [I-53],54 nM
5,COCCN(Cc1cccnn1)C(=O)CNC(=O)/C=C/c1ccc(C(F)(F)F)cc1 [I-59],503 nM
6,CN1CCN(C(=O)CNC(=O)/C=C/c2ccc(C(F)(F)F)cc2)CC1c1ccccc1 (stereo not shown) [I-13],111 nM
7,O=C(/C=C/c1ccc(C(F)(F)F)cc1)NCC(=O)N1CCc2[nH]ncc2C1 [I-76],53 nM
8,O=C(/C=C/c1ccc(C(F)(F)F)cc1)NCC(=O)N1CCc2cc(Br)ccc21 [I-260],24 nM
9,O=C(/C=C/c1ccc(C(F)(F)F)cc1)NCC(=O)N1CC[C@H](n2cccn2)C1 [I-176],185 nM
10,CCC1Cn2ncnc2CN1C(=O)CNC(=O)/C=C/c1ccc(C(F)(F)F)cc1 (stereo not shown) [I-218],355 nM
11,COCC(C)N(Cc1ccccn1)C(=O)CNC(=O)/C=C/c1ccc(C(F)(F)F)cc1 (stereo not shown) [I-83],78 nM
12,CC(O)c1cc2n(n1)CCN(C(=O)CNC(=O)/C=C/c1ccc(C(F)(F)F)cc1)C2 (stereo not shown) [I-208],50 nM
13,O=C(/C=C/c1ccc(S(F)(F)(F)(F)F)cc1)NCC(=O)N1CCn2nc(C(=O)O)cc2C1 [I-272],141 nM
14,O=C(/C=C/c1ccc(C(F)(F)F)cc1)NCC(=O)N1CCCn2ccnc2C1 [I-179],60 nM
15,"CCNC(=O)N1CCN(C(=O)CNC(=O)/C=C/c2ccc(C(F)(F)F)cc2)CC1 [I-134, N-ethyl-4-[2-[[(E)-3-[4-(trifluoromethyl)phenyl]prop-2-enoyl]amino]acetyl]piperazine-1-carboxamide]",1240 nM
16,O=C(/C=C/c1ccc(C(F)(F)F)cc1)NCC(=O)N1CCc2cc(C(=O)O)ncc2C1 [I-264],55 nM
17,"CC1CN(C)CCN1C(=O)CNC(=O)/C=C/c1ccc(C(F)(F)F)cc1 (stereo not shown) [I-119, (E)-N-[2-(2,4-dimethylpiperazin-1-yl)-2-oxoethyl]-3-[4-(trifluoromethyl)phenyl]prop-2-enamide]",30 nM
18,O=C(/C=C/c1ccc(C(F)(F)F)cc1)NCC(=O)N1CC[C@@H](Cn2cccn2)C1 [I-214],728 nM
19,Cn1ncc2c1CCN(C(=O)CNC(=O)/C=C/c1ccc(C(F)(F)F)cc1)C2 [I-77],70 nM
20,Cc1cc2n(n1)CCCN2C(=O)CNC(=O)/C=C/c1ccc(C(F)(F)F)cc1 [I-184],47 nM
21,O=C(/C=C/c1ccc(C(F)(F)F)cc1)NCC(=O)N1CCn2nccc21 [I-180],20 nM
22,O=C(/C=C/c1ccc(C(F)(F)F)cc1)NCC(=O)N1CCc2ncsc2C1 [I-34],21 nM
23,CNC(=O)c1cnn2c1CN(C(=O)CNC(=O)/C=C/c1ccc(C(F)(F)F)cc1)CC2 [I-225],44 nM

row,SMILES,IC50
1,"O=C(/C=C/c1ccc(C(F)(F)F)cc1)NCC(=O)N1CCNC(=O)C1 [I-1, (E)-N-[2-oxo-2-(3-oxopiperazin-1-yl)ethyl]-3-[4-(trifluoromethyl)phenyl]prop-2-enamide]",107 nM
2,Cc1cccc2c1CN(C(=O)CNC(=O)/C=C/c1ccc(C(F)(F)F)cc1)CC2 [I-193],50 nM
3,"CC(=O)N[C@H]1CCN(C(=O)CNC(=O)/C=C/c2ccc(C(F)(F)F)cc2)C1 [I-143, (E)-N-[2-[(3S)-3-acetamidopyrrolidin-1-yl]-2-oxoethyl]-3-[4-(trifluoromethyl)phenyl]prop-2-enamide]",550 nM
4,"CN1CCN(C(=O)CNC(=O)/C=C/c2ccc(-c3ccccc3)cc2)CC1 [I-103, (E)-N-[2-(4-methylpiperazin-1-yl)-2-oxoethyl]-3-(4-phenylphenyl) prop-2-enamide]",31 nM
5,"COCCN(CC(=O)N(C)C)C(=O)CNC(=O)/C=C/c1ccc(C(F)(F)F)cc1 [I-149, (E)-N-[2-[[2-(dimethylamino)-2-oxoethyl]-(2-methoxyethyl)amino]-2-oxoethyl]-3-[4-(trifluoromethyl)phenyl]prop-2-enamide]",170 nM
6,CN(C)C(=O)CNC(=O)/C=C/c1ccc(C(F)(F)F)cc1 [I-104],2030 nM
7,COCCN(Cc1nc(C)c(C)s1)C(=O)CNC(=O)/C=C/c1ccc(C(F)(F)F)cc1 [I-57],96 nM
8,O=C(/C=C/c1ccc(C(F)(F)F)cc1)NCC(=O)N1CCc2n[nH]c(=O)cc2C1 [I-81],53 nM
9,O=C(/C=C/c1ccc(C(F)(F)F)cc1)NCC(=O)N1CCCc2ncccc21 [I-185],31 nM
10,CNC(=O)c1nc2n(n1)CCN(C(=O)CNC(=O)/C=C/c1ccc(C(F)(F)F)cc1)C2 [I-205],88 nM
11,O=C(/C=C/c1ccc(C(F)(F)F)cc1)NCC(=O)N1CCn2ncc(Cl)c2C1 [I-202],22 nM
12,COc1nccc2c1CN(C(=O)CNC(=O)/C=C/c1ccc(C(F)(F)F)cc1)CC2 [I-91],36 nM
13,COc1cc2c(cn1)CN(C(=O)CNC(=O)/C=C/c1ccc(C(F)(F)F)cc1)CC2 [I-92],20 nM
14,O=C(/C=C/c1ccc(C(F)(F)F)cc1)NCC(=O)N1CCn2nc(C(=O)O)c(-c3ccc(C(F)(F)F)cc3)c2C1 [I-265],66 nM
15,CN(CCS(C)(=O)=O)C(=O)CNC(=O)/C=C/c1ccc(C(F)(F)F)cc1 [I-46],181 nM
16,CN1CCN(C(=O)CNC(=O)/C=C/c2ccc(-c3cc(F)c(F)c(F)c3)cc2)CC1 [I-127],88 nM
17,CN1CCN(C(=O)CNC(=O)/C=C/c2ccc(OC(F)(F)F)cc2)CC1 [I-112],56 nM
18,COCCN(CC1CCCO1)C(=O)CNC(=O)/C=C/c1ccc(C(F)(F)F)cc1 (stereo not shown) [I-48],536 nM
19,O=C(/C=C/c1ccc(C(F)(F)F)cc1)NCC(=O)N1CCn2ncnc2C1 [I-35],51 nM
20,CN1CCN(C(=O)CNC(=O)/C=C/c2ccc(C(F)(F)F)cc2)CC1 [I-2],53 nM
21,CNC(=O)[C@@H]1C[C@H](n2cccn2)CN1C(=O)CNC(=O)/C=C/c1ccc(C(F)(F)F)cc1 [I-216],161 nM
